Active and inactive are the calls of the source.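 How the source made its calls: active means compounds blocking the phosphatase with IC50 at or below a set limit; inactive means the rest.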
Molecular target: Tyrosine-protein phosphatase non-receptor type 5 (Homo sapiens) (UniProt P54829)
Assay: STEP phosphatase inhibitor potency, dose response, orthogonal assay for STEP inhibitor project, biochemical, colorimetric absorbance (AID 624207)
Conditions: recombinant STEP, pNPP colorimetric absorbance

Chain of Tyrosine-protein phosphatase non-receptor type 5 (Homo sapiens) (P54829 whole entry, looked up): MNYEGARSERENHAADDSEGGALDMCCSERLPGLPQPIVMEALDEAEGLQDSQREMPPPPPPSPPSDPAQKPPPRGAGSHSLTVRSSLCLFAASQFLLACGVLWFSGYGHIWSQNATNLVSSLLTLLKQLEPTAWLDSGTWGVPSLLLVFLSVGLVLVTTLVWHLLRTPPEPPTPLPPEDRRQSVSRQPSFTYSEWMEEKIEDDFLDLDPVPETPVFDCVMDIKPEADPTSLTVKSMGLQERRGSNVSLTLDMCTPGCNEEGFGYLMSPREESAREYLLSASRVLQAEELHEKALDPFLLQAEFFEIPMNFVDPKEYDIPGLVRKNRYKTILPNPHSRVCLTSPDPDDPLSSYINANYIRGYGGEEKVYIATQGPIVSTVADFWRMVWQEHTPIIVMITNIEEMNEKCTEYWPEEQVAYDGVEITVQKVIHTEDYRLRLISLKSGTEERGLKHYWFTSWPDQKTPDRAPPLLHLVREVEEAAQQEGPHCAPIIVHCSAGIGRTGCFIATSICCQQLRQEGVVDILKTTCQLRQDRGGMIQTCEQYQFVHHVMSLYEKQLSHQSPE

SMILES	IC50
S=C1NC2=C(CCCC2=C2SCCS2)C(c2ccccc2)N1 (centres undefined)	inactive
COc1ccc(OC)c(N2C(=O)[C@@H]3C(c4ccccc4Cl)=NO[C@@H]3C2=O)c1	> 80 µM (inactive)
S=C1NC(C23CC4CC(CC(C4)C2)C3)=CC(c2ccc3c(c2)OCO3)N1 (centres undefined)	> 80 µM (inactive)
CC1=C(O)C(=O)C(C2=C(O)C(=O)C(C)=C(O)C2=O)=C(O)C1=O	> 80 µM (inactive)
COc1ccc(/C=N/N=C2/NC(=O)C(CC(=O)O)S2)cc1OCc1ccc(Cl)cc1Cl (centres undefined)	13.6 µM

More lines, now with the values ahead:

IC50	SMILES
> 80 µM (inactive)	CCOc1cc(/C=N/N=C2/NC(=O)C(CC(=O)O)S2)ccc1OCc1ccc(Cl)cc1Cl (centres undefined)
15.8 µM	O=C(NN=Cc1ccccc1O)c1cccc([N+](=O)[O-])c1
inactive	O=C1C(=O)N(CCCO)C(c2ccc(Br)cc2)/C1=C(\O)c1ccc(Br)cc1 (centres undefined)
4.99 µM	CSc1ccc(C=NNc2ccc(S(=O)(=O)Nc3ccccc3C(=O)O)cc2[N+](=O)[O-])cc1
